From patent publication US8802721B2, “Thiophene compounds for inflammation and immune-related uses” (Synta Pharmaceuticals Corp., priority 2005, dated 2014)

Tests used:
[1] = tested on: IL-2 production; assay: Inhibition of IL-2 production in PHA-activated Jurkat cells (ELISA); type: cell-based; conditions: Homo sapiens, PHA 2.5 μg/mL, 20 hours
Description: Jurkat cells were placed in a 96 well plate (0.5 million cells per well in 1% FBS medium) then a test compound of this invention was added at different concentrations. After 10 minutes, the cells were activated with PHA (final concentration 2.5 μg/mL) and incubated for 20 hours at 37° C. under CO2. The final volume was 200 μL. Following incubation, the cells were centrifuged and the supernatants collected and stored at −70° C. prior to assaying for IL-2 production. A commercial ELISA kit (IL-2 Eli-pair, Diaclone Research, Besancon, France) was used to detect production of IL-2, from which dose response curves were obtained.

[2] = target: ICRAC current in RBL cells (CRAC ion channel) (Rattus norvegicus, UniProt Q5M848); assay: Patch clamp inhibition of ICRAC current in RBL cells; type: cell-based; conditions: whole-cell patch clamp, inward current at −80 mV, read-out: IC50 (concentration which inhibits 50% of the ICRAC current)
ICRAC current in RBL cells (CRAC ion channel), sequence (Q5M848 whole entry, looked up, the tested form may be a part): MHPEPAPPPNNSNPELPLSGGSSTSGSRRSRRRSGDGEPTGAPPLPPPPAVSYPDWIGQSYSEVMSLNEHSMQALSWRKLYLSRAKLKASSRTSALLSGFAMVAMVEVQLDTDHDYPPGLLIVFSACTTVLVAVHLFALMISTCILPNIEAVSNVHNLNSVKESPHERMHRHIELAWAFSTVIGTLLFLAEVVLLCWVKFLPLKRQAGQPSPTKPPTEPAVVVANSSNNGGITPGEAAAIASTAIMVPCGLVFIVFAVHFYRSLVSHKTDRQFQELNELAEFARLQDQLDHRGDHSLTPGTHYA
Description: In general, a whole cell patch clamp method is used to examine the effects of a compound of the invention on a channel that mediates Icrac. In such experiments, a baseline measurement is established for a patched cell. Then a compound to be tested is perfused (or puffed) to cells in the external solution and the effect of the compound on Icrac is measured. A compound that modulates Icrac (e.g., inhibits) is a compound that is useful in the invention for modulating CRAC ion channel activity.
Rat basophilic leukemia cells (RBL-2H3) were grown in DMEM media supplemented with 10% fetal bovine serum in an atmosphere of 95% air/5% CO2. Cells were seeded on glass coverslips 1-3 days before use.
Membrane currents of individual cells were recorded using the whole-cell configuration of the patch clamp technique with an EPC10 (HEKA Electronik, Lambrecht, Germany). Electrodes (2-5 MΩ in resistance) were fashioned from borosilicate glass capillary tubes (Sutter Instruments, Novato, Ca). […]
ICRAC currents were monitored every 2 seconds using a 50 msec protocol, where the voltage was ramped from −100 mV to +100 mV. […]
The ICRAC current level was determined by measuring the inward current amplitude at −80 mV of the voltage ramp in an off-line analysis using MATLAB. The ICRAC current inhibition for each concentration was calculated using peak amplitude in the beginning of the experiment from the same cell. […]

| Compound | IC50 [1] [nM] | IC50 [2] [nM] |
| --- | --- | --- |
| COC(=O)c1ccc(C)c(-c2ccc(C(=O)Nc3c(F)cccc3F)s2)c1 [Compound 3, 3-[5-(2,6-Difluoro-phenylcarbamoyl)-thiophen-2-yl]-4-methyl-benzoic acid methyl ester] | 6.4 |  |
| O=C(Nc1ccc(-c2cccc(C(F)(F)F)c2)s1)c1c(F)cccc1F [Compound 117, 2,6-Difluoro-N-[5-(3-trifluoromethyl-phenyl)-thiophen-2-yl]-benzamide] | 16.5 |  |
| Cc1ccc(-c2ncco2)cc1-c1ccc(NC(=O)c2c(F)cccc2F)s1 [Compound 119, 2,6-Difluoro-N-[5-(2-methyl-5-oxazol-2-yl-phenyl)-thiophen-2-yl]-benzamide] | 94.8 |  |
| COC(=O)c1cccc(-c2sc(NC(=O)c3c(F)cccc3F)cc2C)c1 [Compound 120, 3-[5-(2,6-Difluoro-benzoylamino)-3-methyl-thiophen-2-yl]-benzoic acid methyl ester] | 87 |  |
| O=C(Nc1ccc(-c2cccc(-c3cnco3)c2)s1)c1c(F)cccc1F [Compound 121, 2,6-Difluoro-N-[5-(3-oxazol-5-yl-phenyl)-thiophen-2-yl]-benzamide] | 164 |  |
| COc1ccc(CCCOC(Cn2ccnc2)c2ccc(OC)cc2)cc1 (stereo not shown) [SKF96365] |  | 4000 |

The remaining molecules from weak to strong by IC50 [1], led by results:

| IC50 [1] [nM] | Compound | IC50 [2] [nM] |
| --- | --- | --- |
| 104 | COC(=O)c1ccc(C)c(-c2ccc(NC(=O)c3c(F)cccc3F)s2)c1 [Compound 118, 3-[5-(2,6-Difluoro-benzoylamino)-thiophen-2-yl]-4-methyl-benzoic acid methyl ester] |  |
| 58.5 | COC(=O)c1ccc(C)c(-c2ccc(C(=O)Nc3ccncc3C)s2)c1 [Compound 4, 4-Methyl-3-[5-(3-methyl-pyridin-4-ylcarbamoyl)-thiophen-2-yl]-benzoic acid methyl ester] |  |
| 14 | Cc1cnccc1NC(=O)c1ccc(-c2cc(C(F)(F)F)ccc2Cl)s1 [Compound 2, 5-(2-Chloro-5-trifluoromethyl-phenyl)-thiophene-2-carboxylic acid (3-methyl-pyridin-4-yl)-amide] |  |
| 3 | O=C(Nc1c(F)cccc1F)c1ccc(-c2cc(C(F)(F)F)ccc2Cl)s1 [Compound 1, 5-(2-Chloro-5-trifluoromethyl-phenyl)-thiophene-2-carboxylic acid (2,6-difluoro-phenyl)-amide] |  |
